Tests used:
[1] = tested on: protein kinase G (PKG); experiment: Phospho-VASP immunoblotting for PKG activity in stellate cells alone or cocultured with sinusoidal endothelial cells; format: cell-based, rat
Protocol: For coculture experiments, freshly isolated stellate cells and freshly isolated sinusoidal endothelial cells were isolated separately and mixed together on collagen-coated plates and cultured for 5 days. Sinusoidal endothelial cells were plated at a density of 200,000 cells/cm2, and stellate cells were at a density of 65,000 cells/cm2.
Immunoblotting, Immunoblotting was performed by using specified primary antibodies, including anti-eNOS antibody (1:1,000; BD Transduction Laboratories, San Jose, Calif.), anti-phospho-eNOS-Ser^1177 (1:1,000; BD Transduction Laboratories or Cell Signaling Technology), anti-phospho-Akt, anti-Akt (Cell Signaling Technology, Beverly, Mass.), and horseradish peroxidase-conjugated secondary antibody. Specific signals were visualized using enhanced chemiluminescence as per the manufacturer's instructions and were scanned and quantitated with standard software.

[2] = target: T1, eNOS cytochrome c reductase activity (Rattus norvegicus, UniProt Q62600); experiment: NADPH-dependent cytochrome c reductase assay in sinusoidal endothelial cell lysates; format: cell-based
T1 construct: endogenous in cells; host or cells: primary liver sinusoidal endothelial cells from male Sprague-Dawley rats (normal or bile-duct-ligated)
T1 sequence (Q62600 1-1202): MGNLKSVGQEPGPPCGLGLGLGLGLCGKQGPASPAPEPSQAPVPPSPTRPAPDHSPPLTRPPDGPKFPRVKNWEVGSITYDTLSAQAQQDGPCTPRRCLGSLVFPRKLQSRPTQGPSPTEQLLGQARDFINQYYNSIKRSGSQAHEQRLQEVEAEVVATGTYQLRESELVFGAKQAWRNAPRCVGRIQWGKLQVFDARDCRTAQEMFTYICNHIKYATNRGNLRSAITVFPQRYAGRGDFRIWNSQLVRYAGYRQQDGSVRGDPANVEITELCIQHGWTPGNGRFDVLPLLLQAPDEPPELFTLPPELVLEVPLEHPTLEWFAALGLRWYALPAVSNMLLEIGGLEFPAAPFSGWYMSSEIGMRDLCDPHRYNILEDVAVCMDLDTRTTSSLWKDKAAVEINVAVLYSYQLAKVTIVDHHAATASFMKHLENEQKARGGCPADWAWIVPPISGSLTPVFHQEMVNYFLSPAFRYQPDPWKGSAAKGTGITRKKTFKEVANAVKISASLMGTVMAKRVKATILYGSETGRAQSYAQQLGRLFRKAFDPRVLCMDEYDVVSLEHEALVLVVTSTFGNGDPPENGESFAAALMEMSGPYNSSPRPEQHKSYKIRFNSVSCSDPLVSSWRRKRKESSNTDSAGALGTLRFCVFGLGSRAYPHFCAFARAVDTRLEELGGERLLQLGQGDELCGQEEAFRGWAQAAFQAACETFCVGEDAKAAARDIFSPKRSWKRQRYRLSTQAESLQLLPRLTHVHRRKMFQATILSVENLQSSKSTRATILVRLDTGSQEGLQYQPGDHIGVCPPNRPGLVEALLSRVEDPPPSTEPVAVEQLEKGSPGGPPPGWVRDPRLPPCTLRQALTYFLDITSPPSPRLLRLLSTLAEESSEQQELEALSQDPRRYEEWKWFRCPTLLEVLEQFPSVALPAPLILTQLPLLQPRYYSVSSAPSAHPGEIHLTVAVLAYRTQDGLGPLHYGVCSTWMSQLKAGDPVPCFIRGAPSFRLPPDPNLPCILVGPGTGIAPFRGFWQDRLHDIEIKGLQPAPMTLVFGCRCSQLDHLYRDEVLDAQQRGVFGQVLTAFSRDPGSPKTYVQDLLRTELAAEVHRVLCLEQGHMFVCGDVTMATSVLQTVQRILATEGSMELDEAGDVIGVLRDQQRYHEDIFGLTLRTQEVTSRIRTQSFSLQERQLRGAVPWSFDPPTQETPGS
Protocol: Cell isolation and culture. Sinusoidal endothelial cells were isolated from male Sprague-Dawley rats (450-500 g) (Harlan, Indianapolis, Ind.). In brief, after in situ perfusion of the liver with 20 mg/100 mg pronase (Roche Molecular Biochemicals, Indianapolis, Ind.), followed by collagenase (Worthington Biochemical, Lakewood, N.J.), dispersed cell suspensions were removed from a layered discontinuous density gradient of 8.2 and 15.6% Accudenz (Accurate Chemical and Scientific, Westbury, N.Y.), further purified by centrifugal elutriation (18 ml/min flow), and were grown in medium containing 20% serum (10% horse/calf). The purity of endothelial cells was documented by their uptake of fluorescently labeled di-l-acetoacetylated low-density lipoprotein as described (21). Only primary sinusoidal endothelial isolates of >95% purity were used for study. Experiments were performed with cells frorrr a minimum three different isolations (for all experiments).
NOS activity assay. NOS activity from sinusoidal endothelial cell lysates was assessed by measuring the conversion of L-[3H]arginine to L-[3H]citrulline as described (6) per the manufacturer's instructions (Cayman Chemical). […] Radiolabeled counts per minute of generated L-citrulline were measured and used to determine L-NAME-inhibitable NOS activity (thus, each experiment included total counts and background counts). […] The reductase activities of sinusoidal endothelial cells with or without cicletanine exposure were determined using the NADPH-dependent cytochrome c assay. […] The reduction of cytochrome c was monitored at 550 nm at 25° C. […] Turnover number was calculated using the absorbance change during this 30-s interval and an extinction coefficient of 0.021/μM.

- rate of cytochrome c reduction compared with no cicletanine treatment ([2]; CaM stimulation): twofold more
- rate of cytochrome c reduction compared with no cicletanine treatment ([2]; basal level): twofold more
- cytochrome c reductase activity ([2]; cicletanine 100 nM, 2 h): significant increase
Compound: Cc1ncc2c(c1O)COC2c1ccc(Cl)cc1 (centres unmarked) [cicletanine, 3-(4-chlorophenyl)-1,3-dihydro-7-hydroxy-6-methylfuro-(3,4-c) pyridine]
- VASP phosphorylation ([1]; stellate cells alone): did not alter
- VASP phosphorylation ([1]; stellate cells cocultured with sinusoidal endothelial cells): stimulated

From patent US20170056380A1, “Systems, Methods, Techniques, and Compounds in Research and Treatment of Portal Hypertension and other Conditions” (priority 2014, published 2017)
